These results are taken from patent publication US20250009750A1, “METHODS OF TREATING DISORDERS ASSOCIATED WITH EYA OVEREXPRESSION AND MUTATIONS” (The Board of Regents of the University of Texas System, priority 2023, published 2025).

The structures appear in SMILES notation.

The target in assay [1] is T1, EYA4 tyrosine phosphatase (Homo sapiens, UniProt O95677).
T1 construct: GFP (pEGFP-C1) (N, cleaved yes); made in house; host or cells: Expi293 mammalian suspension cells
T1 sequence (O95677 1-639): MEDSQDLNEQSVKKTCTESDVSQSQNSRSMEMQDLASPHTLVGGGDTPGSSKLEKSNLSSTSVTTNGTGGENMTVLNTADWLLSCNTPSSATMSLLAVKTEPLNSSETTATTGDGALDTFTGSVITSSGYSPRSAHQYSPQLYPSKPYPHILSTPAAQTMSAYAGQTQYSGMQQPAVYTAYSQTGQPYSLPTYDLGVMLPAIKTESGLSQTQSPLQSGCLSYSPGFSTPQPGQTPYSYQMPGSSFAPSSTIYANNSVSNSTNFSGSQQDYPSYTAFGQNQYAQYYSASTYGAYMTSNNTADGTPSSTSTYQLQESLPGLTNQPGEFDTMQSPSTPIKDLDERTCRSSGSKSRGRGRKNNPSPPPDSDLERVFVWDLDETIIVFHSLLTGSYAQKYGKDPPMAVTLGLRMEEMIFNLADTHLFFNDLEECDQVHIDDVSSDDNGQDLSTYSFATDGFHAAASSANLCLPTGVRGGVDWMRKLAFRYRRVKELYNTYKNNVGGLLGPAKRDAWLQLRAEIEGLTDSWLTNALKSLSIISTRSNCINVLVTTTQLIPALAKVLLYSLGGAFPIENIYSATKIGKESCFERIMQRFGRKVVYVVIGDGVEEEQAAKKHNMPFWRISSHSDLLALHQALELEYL
Kind of assay: Malachite green phosphatase assay, full length EYA4, tyrosine phosphatase activity. The conditions noted are these: increasing amounts of inhibitor. The assay is classed as biochemical. How it is done:
(§1) To measure phosphatase activity, increasing concentrations of EYA4 (0-200 nM, alone or pre-incubated with ssDNA) were incubated in the presence of 400 nM potential substrates (peptides sourced from Genscript, see list and sequence in figures) in 50 μL of reaction buffer A ([…] pH 6, 2 mM MgCl2, 50 μM DTT) for 1 h at 37° C. At the end of the first incubation, the reaction mix containing malachite green was added to phosphatase or ATPase reactions, and the mixture was further incubated for 30 minutes at 37° C. Plates were read at 620 nm in a plate reader. The quantity of […] was inferred from the standard curve prepared as per manufacturer recommendation (Sigma).
[…] proteins have been described to dephosphorylate residue Y142 on the histone variant H2AX and the same activity was recently confirmed in EYA4. Using the synthetic peptide KATQASQE{pTyr} as substrate and a commercial colorimetric malachite green assay (Sigma) that allows to quantify […] released in the buffer by a phosphatase, EYA4's tyrosine phosphatase activity was assayed in the presence of putative inhibitors.
In a malachite green assay, the tyrosine but not serine/threonine phosphatase activity was inhibited by CIDD molecule—149689. […]

The target in assay [2] is T2, EYA4 serine/threonine phosphatase domain (Homo sapiens, UniProt O95677).
T2 construct: the N-terminus domain of EYA4 (residues 1-365), was sub-cloned as a Strep-mCherry-EYA4-His construct; Strep (N); His (C); made in house; host or cells: Sf9 insect cells (baculovirus, pFastBac1)
T2 sequence (O95677 1-365): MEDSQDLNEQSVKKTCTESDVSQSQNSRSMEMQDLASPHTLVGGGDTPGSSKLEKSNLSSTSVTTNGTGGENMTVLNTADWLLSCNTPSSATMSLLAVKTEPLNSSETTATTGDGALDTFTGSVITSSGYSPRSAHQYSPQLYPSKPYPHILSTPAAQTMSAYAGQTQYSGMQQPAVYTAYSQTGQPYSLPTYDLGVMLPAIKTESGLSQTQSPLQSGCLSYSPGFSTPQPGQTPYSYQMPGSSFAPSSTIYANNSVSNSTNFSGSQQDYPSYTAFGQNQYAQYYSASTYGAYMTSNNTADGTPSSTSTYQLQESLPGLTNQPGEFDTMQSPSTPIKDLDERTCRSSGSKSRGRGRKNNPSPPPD
Kind of assay: Malachite green phosphatase assay, first 365 residues of EYA4 (serine/threonine phosphatase domain), 53BP1-derived peptide. The assay is classed as biochemical. On the procedure: as §1
In a malachite green assay, the tyrosine but not serine/threonine phosphatase activity was inhibited by CIDD molecule—149689. For this assay, full length EYA4 purified near homogeneity as previously described was incubated with increasing amounts of inhibitor, then mixed with either peptide KATQASQE{pTyr} from H2AX or with peptide from RAD51.

The test system of assay [3] is HRD+ pancreatic cell lines. Kind of assay: Survival of treated pancreatic cell lines panel. The assay is classed as cell-based. To be noted: at the concentrations tested, FIG. 34C. The source says: Using molecules that target regulators of DNA metabolism mechanisms (repair, recombination, replication), such as kinase and phosphatase can offer a therapeutic window for drug resistant, HRD>0 patients. EYA4 inhibitors have been tested on the pancreatic cell lines panel. […] EYA4i have therapeutic potential for the treatment of pancreatic cancer, including PARPi refractory disease.

For `Clc1ccc(CNc2nc(NC3CCCC3)nc3ccccc23)cc1Cl` [CIDD molecule—149689, N2-cyclopentyl-N4-(3,4-dichlorobenzyl) quinazoline-2,4-diamine], the “EYA4 tyrosine phosphatase activity” value in assay [1] (peptide KATQASQE{pTyr} from H2AX) and in assay [1] (peptide from RAD51) was “significantly reduced” in each case. In assay [2], the serine/threonine phosphatase activity entry is on record as “not inhibited”.

For the molecule `O=C(NN=Cc1ccc(Sc2ncccn2)o1)c1cccc(Cl)c1` [CSCS14817788384, 3-chloro-N′-{[5-(pyrimidin-2-ylsulfanyl)furan-2-yl]methylidene}benzohydrazide], the “growth of pancreatic cells” value in assay [3] was “does not efficiently inhibit growth”.
